Experimental data reported in patent US20230008571A1, “CYCLIC COMPOUNDS FOR TREATING CARDIOVASCULAR DISORDERS AND WOUNDS” (University of South Florida, priority 2021, published 2023).

Target: T1, EGFR (Homo sapiens, UniProt P00533)
T1 construct: A549 cells were chosen due to their elevated expression of EGFR; endogenous in cells; host or cells: A549
Experiment: Western blot of EGF-induced EGFR phosphorylation in A549 cells
Format: cell-based
Experimental: A549 cells were chosen due to their elevated expression of EGFR.
A549 cells were seeded into a 6-well plate at a concentration of 1×10^5 cells/well. After 12 h attachment at 37° C. and 5% CO2, the cells were starved overnight in serum-reduced DMEM followed by treatment with different concentration of M-2-2 for 4 h. […] Subsequently, the cells were incubated on ice for 10 min and centrifuged at 14,000×g at 4° C. for 10 min. […] The experiments were conducted in triplicates and repeated for three times.

T1 sequence (P00533 25-1210): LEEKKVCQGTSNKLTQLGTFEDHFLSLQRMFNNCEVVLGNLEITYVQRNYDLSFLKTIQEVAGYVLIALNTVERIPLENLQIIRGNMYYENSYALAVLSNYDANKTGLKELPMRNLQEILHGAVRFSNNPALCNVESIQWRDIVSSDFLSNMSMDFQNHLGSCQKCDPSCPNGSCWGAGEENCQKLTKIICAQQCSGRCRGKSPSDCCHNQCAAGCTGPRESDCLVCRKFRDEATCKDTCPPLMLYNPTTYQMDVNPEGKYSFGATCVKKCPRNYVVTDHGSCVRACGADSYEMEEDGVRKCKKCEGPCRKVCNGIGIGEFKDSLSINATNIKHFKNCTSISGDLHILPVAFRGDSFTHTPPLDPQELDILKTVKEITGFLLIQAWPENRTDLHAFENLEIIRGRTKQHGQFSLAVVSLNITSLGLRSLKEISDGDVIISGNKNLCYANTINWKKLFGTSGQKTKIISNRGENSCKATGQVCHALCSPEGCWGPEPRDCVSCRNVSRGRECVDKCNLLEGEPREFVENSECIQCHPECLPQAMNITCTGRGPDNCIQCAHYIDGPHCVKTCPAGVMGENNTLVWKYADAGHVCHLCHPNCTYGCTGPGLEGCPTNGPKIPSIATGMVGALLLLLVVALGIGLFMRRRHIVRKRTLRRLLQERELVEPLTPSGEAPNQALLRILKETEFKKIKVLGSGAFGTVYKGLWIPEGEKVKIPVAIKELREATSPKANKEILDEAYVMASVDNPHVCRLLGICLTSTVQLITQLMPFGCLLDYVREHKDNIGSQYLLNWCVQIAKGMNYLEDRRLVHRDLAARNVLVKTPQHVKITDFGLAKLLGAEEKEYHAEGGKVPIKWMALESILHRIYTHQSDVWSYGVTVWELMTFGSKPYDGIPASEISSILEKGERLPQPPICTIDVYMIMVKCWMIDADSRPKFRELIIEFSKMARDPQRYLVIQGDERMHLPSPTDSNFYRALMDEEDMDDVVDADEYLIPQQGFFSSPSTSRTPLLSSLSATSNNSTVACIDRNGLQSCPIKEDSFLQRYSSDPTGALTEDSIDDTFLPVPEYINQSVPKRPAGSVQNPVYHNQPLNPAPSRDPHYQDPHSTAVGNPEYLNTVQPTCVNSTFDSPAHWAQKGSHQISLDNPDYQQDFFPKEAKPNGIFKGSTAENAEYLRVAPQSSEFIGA

What does the source list for `CC[C@H]1CN(C(=O)CCC2CCCCC2)CC(=O)N[C@@H](CC)CN(C(=O)Cc2ccc3c(c2)OCO3)CC(=O)N[C@@H](CC(C)C)CN(CC(N)=O)C(=O)CCSCc2ccc(cc2)C(=O)N[C@@H](CC(C)C)CN(C(=O)Cc2ccc3c(c2)OCO3)CC(=O)N1` [M-2-2]?
effect on phosphorylation level of EGFR (P-EGFR) in the presence of EGF (starved A549 cells, 20 μM, 4 h pretreatment, then 100 ng/mL EGF, western blot, P-EGFR/GAPDH): enhance the activation of EGFR; effect on downstream signal transduction of EGF stimulated EGFR (western blot with anti-phosphorylated AKT and ERK, concentration not given): enhance
